Several values for one entry are separate records, joined by “and”; a condition that tells them apart may be missing. Identical values can stand only once. Entries after “also recorded” stand apart in the source; their conditions may differ. Like-named read-outs stand apart in the source and are kept apart here.

Results on 17 molecules are retold here after US20260308108A1, “COMPOSITIONS AND METHODS FOR THE TREATMENT OF OCULAR DISORDERS” (Case Western Reserve University, priority 2023, published 2026).

Series [1] has as its target RPE65 (Bos taurus, UniProt Q28175). The experiment in a line: RPE65 activity assay in vitro (11-cis-retinol production by bovine RPE microsomes). The following applies: for RPE65 inhibition (in words): in vitro.
Series [2] relates to RPE65. To be noted: 10 mg/kg IP; for 11cRAL / RE: mean ± SD, n = 3 mice.
Series [3] can be described thus: Observation of animals after treatment (toxicity). The class given is in vivo, BALB/cJ mice. The following applies: 10 mg/kg IP; even 24 h after treatment. The source says:
Vehicle-only and nontreated animals served as controls. […] Three animals were used for each time point.

In series [4] the test system is mouse liver microsomes (CYP-450 enzymes).
The nature of a further series: in vitro. To be noted: mouse, microsomes.
In series [5] the target is T1, VAP-1 (Mus musculus, UniProt O70423).
T1 sequence (O70423 1-765): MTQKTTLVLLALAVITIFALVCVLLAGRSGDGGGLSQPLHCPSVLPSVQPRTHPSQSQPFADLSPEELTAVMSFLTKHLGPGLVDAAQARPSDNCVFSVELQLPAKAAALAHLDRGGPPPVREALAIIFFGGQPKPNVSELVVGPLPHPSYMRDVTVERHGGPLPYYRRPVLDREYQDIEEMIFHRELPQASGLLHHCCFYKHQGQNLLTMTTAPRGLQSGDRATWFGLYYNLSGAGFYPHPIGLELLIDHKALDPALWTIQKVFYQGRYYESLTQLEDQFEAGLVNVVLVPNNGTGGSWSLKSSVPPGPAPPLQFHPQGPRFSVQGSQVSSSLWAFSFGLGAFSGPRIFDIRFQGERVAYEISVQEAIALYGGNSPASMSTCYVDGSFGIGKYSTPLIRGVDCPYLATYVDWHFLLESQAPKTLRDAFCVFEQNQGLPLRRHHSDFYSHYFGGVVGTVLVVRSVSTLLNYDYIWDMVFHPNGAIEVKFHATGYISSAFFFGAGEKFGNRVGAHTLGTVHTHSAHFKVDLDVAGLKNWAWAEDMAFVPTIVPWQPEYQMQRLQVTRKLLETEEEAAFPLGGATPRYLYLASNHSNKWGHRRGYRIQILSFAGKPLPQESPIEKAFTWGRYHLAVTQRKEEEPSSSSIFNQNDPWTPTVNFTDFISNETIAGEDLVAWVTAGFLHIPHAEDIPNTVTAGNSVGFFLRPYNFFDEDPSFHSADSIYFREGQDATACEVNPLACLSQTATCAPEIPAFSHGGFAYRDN
The experiment in a line: VAP-1 oxidation assay (mouse aorta homogenates). To be noted: role: substrate; for ACU-5201 (deaminated product) formed / concentration of tested compound in mouse aorta homogenate: 100 μM, mean ± SD, n = 3.

Series [6] has as its system VAP-1. To be noted: role: substrate; cited from earlier work.
For series [7], the system named is RPE65. To be noted: among first targeted inhibitors (amine derivatives of retinol); cited from earlier work.
Where [8] appears, read: read-out: IC50 ± SD, bovine RPE microsomes, mean ± SD, n = 3.
[9] abbreviates: bovine RPE microsomes, mean ± SD, n = 3.

Chain of RPE65 (Bos taurus, UniProt Q28175) (Q28175 whole entry): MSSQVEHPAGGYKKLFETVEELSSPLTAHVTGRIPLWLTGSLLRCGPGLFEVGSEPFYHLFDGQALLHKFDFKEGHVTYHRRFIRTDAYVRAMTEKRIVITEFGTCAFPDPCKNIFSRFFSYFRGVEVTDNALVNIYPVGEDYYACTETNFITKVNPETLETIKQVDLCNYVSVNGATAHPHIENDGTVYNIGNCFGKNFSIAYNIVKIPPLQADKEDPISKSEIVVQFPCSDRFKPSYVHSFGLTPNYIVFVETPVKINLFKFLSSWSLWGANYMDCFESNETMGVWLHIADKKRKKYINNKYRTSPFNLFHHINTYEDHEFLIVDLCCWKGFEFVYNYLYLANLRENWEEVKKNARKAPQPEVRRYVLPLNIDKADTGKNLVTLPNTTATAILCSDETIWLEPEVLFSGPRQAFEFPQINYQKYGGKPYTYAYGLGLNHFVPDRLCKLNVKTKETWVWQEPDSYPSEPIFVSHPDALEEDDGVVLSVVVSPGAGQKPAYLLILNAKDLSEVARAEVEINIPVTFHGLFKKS

By IC50 is commonly meant the concentration that inhibits the measured activity by half. Consider `NCCC(O)c1ccc(OCC2CCCCC2)cc1` (stereo not shown) [Compound 3b, 3-Amino-1-(4-(cyclohexylmethoxy)phenyl)propan-1-ol], for which the concentration for half-maximal inhibition (IC50) against RPE65 [1] amounted to 8980 ± 3440 nM.
Turning to `NCCC(O)c1ccccc1OCC1CCCCC1` (stereo not shown) [Compound 3c, 3-Amino-1-(2-(cyclohexylmethoxy)phenyl)propan-1-ol], the IC50 at RPE65 [1] (setting [8]) stood at 4670 ± 1230 nM.
For the molecule `NC(CCO)c1cccc(OCC2CCCCC2)c1` (stereo not shown) [Compound 6a, 3-Amino-3-(3-(cyclohexylmethoxy)phenyl)propan-1-ol], the “IC50 ± SD” value at RPE65 [1] (setting [9]) is recorded as “No Inhibition”. The “RPE65 inhibition (in words)” value at RPE65 [1] is on record as “lack of inhibitory activity; also recorded: no inhibition in vitro”.
The like results for `NC(CO)Cc1cccc(OCC2CCCCC2)c1` (stereo not shown) [Compound 6b, 2-Amino-3-(3-(cyclohexylmethoxy)phenyl)propan-1-ol] were, in that order, “No Inhibition” and “no inhibition in vitro”.
The like results for `NC(CO)Cc1ccc(OCC2CCCCC2)cc1` (stereo not shown) [Compound 6c, 2-Amino-3-(4-(cyclohexylmethoxy)phenyl)propan-1-ol] were, in that order, “No Inhibition” and “lack of dose-response relationship”.
Regarding `NCC(O)c1cccc(OCC2CCCCC2)c1` (stereo not shown) [Compound 11a], at RPE65 [1], the “RPE65 inhibition (in words)” value is reported as “substantially less potent than 3a”. The half-inhibitory concentration (IC50) on RPE65 [1] (setting [8]) was 3190 ± 810 nM.
The molecule `NCCc1cccc(OCC2CCCCC2)c1` [Compound 11b, 2-(3-(Cyclohexylmethoxy)phenyl)ethan-1-amine] had an IC50 at RPE65 [1] (bovine RPE microsomes) of 420 ± 110 nM. The “more potent activity toward RPE65 relative to amine 11a” value on RPE65 [1] (relative to 11a) was found to be 7.6 times. For the same molecule, the “RPE65 inhibition in vivo (in words)” value in the series with RPE65 [2] is on record as “did not display hallmarks of inhibited RPE65 activity in vivo”. In the series on RPE65 [2] (0 h after light exposure), this molecule had a 11cRAL of 16.2 ± 16.2 pmol/eye and an RE of 225.1 ± 29.5 pmol/eye. In the series on RPE65 [2] (24 h), the 11cRAL came to 137.4 ± 44.5 pmol/eye and the RE was found to be 377.3 ± 54.4 pmol/eye.
For the molecule `CC(CN)c1cccc(OCC2CCCCC2)c1` (stereo not shown) [Compound 11c, 2-(3-(Cyclohexylmethoxy)phenyl)propan-1-amine], at RPE65 [1], the “RPE65 inhibition (in words)” value is “weaker inhibition; also recorded: the lowest level of inhibition”. At RPE65 [1] (setting [8]), the IC50 is 6730 ± 260 nM.
For the molecule `NCCc1ccc(F)c(OCC2CCCCC2)c1` [Compound 11d, 2-(3-(Cyclohexylmethoxy)-4-fluorophenyl)ethan-1-amine], the IC50 on RPE65 [1] (setting [8]) was found to be 1230 ± 130 nM. On RPE65 [1] (relative to 11b), the “decrease in RPE65 inhibition relative to 11b” value is on record as 3 fold.
Turning to `NCCCc1cccc(OCC2CCCCC2)c1` [Compound 16a], the IC50 on RPE65 [1] (setting [8]) amounted to 1550 ± 300 nM. Besides, the “decrease in inhibition of RPE65 relative to 3a” value on RPE65 [1] was found to be 8 fold.
Regarding `CC(CCN)c1cccc(OCC2CCCCC2)c1` (stereo not shown) [Compound 16b, 3-(3-(Cyclohexylmethoxy)phenyl)butan-1-amine], on RPE65 [1], the “RPE65 inhibition (in words)” value is “the lowest level of inhibition” and the “decrease in inhibition of RPE65 relative to 3a” value turned out to be 4 fold. Further, at RPE65 [1] (setting [8]), the IC50 came to 820 ± 500 nM. The “potency relative to 16a” value on RPE65 [1] (relative to 16a) is on record as “roughly doubled”. Besides, the “RPE65 inhibition in vivo (in words)” value in the series with RPE65 [2] is “minor RPE65 inhibition 4 h after treatment, but animals were fully dark-adapted after 24 h”. In the series with RPE65 [2] (0 h after light exposure), this molecule yielded a 11cRAL of 25.6 ± 2.7 pmol/eye and an RE of 291.5 ± 33.1 pmol/eye. In addition, in the series with RPE65 [2] (4 h), the 11cRAL is reported as 94.4 ± 11.4 pmol/eye and the RE is 435.5 ± 27.5 pmol/eye. In addition, in the series on RPE65 [2] (24 h), the 11cRAL worked out at 370.5 ± 9.1 pmol/eye and the RE amounted to 123.9 ± 36.4 pmol/eye. In addition, the “toxicity observed in treated animals” value in series [3] is “all animals showed impaired body movement even 24 h after treatment”.
`CC(CN)Cc1cccc(OCC2CCCCC2)c1` (stereo not shown) [Compound 16c]: the IC50 against RPE65 [1] came to 590 ± 70 nM. Moreover, the 11cRAL came out at 17.4 ± 0.8 pmol/eye with RPE65 [2] (0 h after light exposure), 323.0 ± 5.1 pmol/eye in the series with RPE65 [2] (4 h) and 253.5 ± 9.0 pmol/eye with RPE65 [2] (24 h). Besides, the RE in the series on RPE65 [2] (0 h after light exposure) is recorded as 253.5 ± 22.5 pmol/eye; in the series on RPE65 [2] (4 h), 111.9 ± 18.5 pmol/eye; with RPE65 [2] (24 h), 85.6 ± 12.7 pmol/eye.
For the molecule `CC(CN)Cc1ccc(F)c(OCC2CCCCC2)c1` (stereo not shown) [Compound 16d, 3-(3-(Cyclohexylmethoxy)-4-fluorophenyl)-2-methylpropan-1-amine], on RPE65 [1] (setting [9]), the “IC50 ± SD” value is on record as “No Inhibition”. In addition, the “RPE65 inhibition (in words)” value on RPE65 [1] was “inactive”. In addition, the 11cRAL is 23.5 ± 2.3 pmol/eye with RPE65 [2] (0 h after light exposure); 398.0±26.6 pmol/eye and 413.2 ± 8.1 pmol/eye with RPE65 [2] (4 h); 398.0 ± 26.6 pmol/eye in the series on RPE65 [2] (24 h). Also, the figures for the RE with RPE65 [2] (0 h after light exposure), in the series on RPE65 [2] (4 h) and in the series on RPE65 [2] (24 h) were 259.9 ± 54.6 pmol/eye, 101.1 ± 12.9 pmol/eye and 122.7 ± 30.6 pmol/eye, respectively.
A word on the Km: it is the concentration of substrate that gives half-maximal velocity. Regarding `CNCCC(O)c1cccc(OCC2CCCCC2)c1` (stereo not shown) [Compound 16e, 1-(3-(Cyclohexylmethoxy)phenyl)-3-(methylamino)propan-1-ol], the “16e level in eye” value (after single IP of 3a, 1 h) was determined as 0.000 pmol/eye. In addition, the “16e level in serum” value by setting is: (after single IP of 3a, 1 h) 0.00 pmol/mL serum; (after single IP of 16e, 24 h) 0.000 pmol/mL serum. The “levels in eye and plasma (in words)” value (after single IP of 16e (10 mg/kg)) was “decreased significantly at 4 h and approached baseline levels in both eye and plasma at 24 h after injection”. In addition, the concentration (read-out: 16e level in serum, after single IP of 16e, 4 h, 10 mg/kg) was 0.111 µM. Further, the Km (in series [4]; in the series “in vitro”) was 39 µM throughout. Further, the 11cRAL in the series on RPE65 [2] (0 h after light exposure) was 13.8 ± 1.5 pmol/eye; with RPE65 [2] (4 h) it was 22.5 ± 4.5 pmol/eye; in the series with RPE65 [2] (24 h), 201.8±53.2 pmol/eye. Moreover, the RE was 296.6 ± 65.2 pmol/eye with RPE65 [2] (0 h after light exposure); 393.5 ± 60.0 pmol/eye in the series on RPE65 [2] (4 h); 215.4±99.2 pmol/eye and 213.4 ± 99.2 pmol/eye in the series with RPE65 [2] (24 h). Besides, in the series on RPE65 [2] (24 h), the “level of 11cRAL as percent of the dark-adapted level” value was found to be 53%. Besides, the “VAP-1 oxidative metabolism (in words)” value at VAP-1 [5] is “resistant to VAP-1 oxidative deamination”. For the same molecule, the “ACU-5201 (deaminated product) formed” value on VAP-1 [5] (0 h) came out at 0.00 ± 0.00 µM; at VAP-1 [5] (1 h) it was 0.48 ± 0.68 µM; at VAP-1 [5] (4 h) it was 3.76 ± 0.29 µM. The “concentration of tested compound in mouse aorta homogenate” value at VAP-1 [5] (0 h) came out at 100.32 ± 0.95 µM; at VAP-1 [5] (1 h) it was 101.20 ± 0.89 µM; on VAP-1 [5] (4 h) it was 89.07 ± 0.49 µM. Further, the “reduction of the formation of ACU-5201” value is “about 99.5%” at VAP-1 [5] (1 h) and around 96.25% on VAP-1 [5] (4 h).
Consider `COc1cc(NC(C)CCCN)c2ncccc2c1` (stereo not shown) [primaquine], for which, in the series on VAP-1 [6], the “VAP-1 metabolism (in words)” value is on record as “shown important”.
Consider `CC1=C(/C=C/C(C)=C/C=C/C(C)=C/CN)C(C)(C)CCC1` [retinylamine], for which the “potency as RPE65 inhibitor (in words)” value with RPE65 [7] is listed as “the most potent among them”.
Regarding `N=C(N)NCCCCCCNC(=O)COC(=O)NCCCCNCCCN` [tresperimus], the “VAP-1 metabolism (in words)” value in the series with VAP-1 [6] is “shown important”.
